Measured values published in patent US6710049B2, “Azole compounds as anti-fungal agents” (Ranbaxy Laboratories Limited, priority 2000, dated 2004).
≈ marks a conversion by molar mass, not a printed value.

Legend:
P variotii 22319 = test: MIC determination (NCCLS broth method); type: cell-based, Paecillomyces variotii; settings: read-out: Minimum Inhibitory Concentration (MIC)
Excerpt: (§1) The in-vitro evaluation of the antifungal activity of the compounds can be performed by determining the minimum inhibitory concentration (MIC) as shown in Table 1 which is the concentration of the test compound in Rosewell Park Memorial Institute (RPMI) 1640 liquid medium buffered with 3-(Morpholino)propanesulphonic acid (MOPS) to pH 7, at which there is significant inhibition of the particular fungi. In practice the National Committee for Clinical Laboratory Standard (NCCLS) M27A document for Candida and Cryptococcus and M38P for Aspergillus was used to determine the MIC against yeast and filamentous fungi with suitable modifications for dermatophytes to other filamentous fungi. Three quality control strains were included each time the MIC were determined and readings recorded only when the Quality Control results fell into the acceptable range. After MIC results had been recorded, 100 μl from each of the well showing no growth was spread over Sabouraud Dextrose Agar (SDA) to determine the minimum fungicidal concentration (MFC) as shown in Table 2.

C albicans A-26 = test: MIC determination (NCCLS broth method); type: cell-based, Candida albicans; settings: Candida albicans, A26, read-out: Minimum Inhibitory Concentration (MIC)
Excerpt: as §1

C albicans Y01.19 = test: MIC determination (NCCLS broth method); type: cell-based, Candida albicans; settings: Candida albicans, read-out: Minimum Inhibitory Concentration (MIC)
Excerpt: as §1

A flavus E2 - 1043 = test: MIC determination (NCCLS broth method); type: cell-based; settings: read-out: Minimum Inhibitory Concentration (MIC)
Excerpt: as §1

A flavus E3 - 1044 = test: MIC determination (NCCLS broth method); type: cell-based; settings: read-out: Minimum Inhibitory Concentration (MIC)
Excerpt: as §1

A flavus E4 - 1042 = test: MIC determination (NCCLS broth method); type: cell-based; settings: read-out: Minimum Inhibitory Concentration (MIC)
Excerpt: as §1

A flavus P2 - 1045 = test: MIC determination (NCCLS broth method); type: cell-based; settings: read-out: Minimum Inhibitory Concentration (MIC)
Excerpt: as §1

A flavus P3 - 1041 = test: MIC determination (NCCLS broth method); type: cell-based; settings: read-out: Minimum Inhibitory Concentration (MIC)
Excerpt: as §1

A niger E5 - 1047 = test: MIC determination (NCCLS broth method); type: cell-based; settings: read-out: Minimum Inhibitory Concentration (MIC)
Excerpt: as §1

A niger P1 - 1046 = test: MIC determination (NCCLS broth method); type: cell-based; settings: read-out: Minimum Inhibitory Concentration (MIC)
Excerpt: as §1

Alternaria 1051 = test: MIC determination (NCCLS broth method); type: cell-based; settings: read-out: Minimum Inhibitory Concentration (MIC)
Excerpt: as §1

C glabrata 90030 = test: MIC determination (NCCLS broth method); type: cell-based; settings: read-out: Minimum Inhibitory Concentration (MIC)
Excerpt: as §1

C krusei 6258 = test: MIC determination (NCCLS broth method); type: cell-based; settings: read-out: Minimum Inhibitory Concentration (MIC)
Excerpt: as §1

C krusei 766.1 = test: MIC determination (NCCLS broth method); type: cell-based; settings: read-out: Minimum Inhibitory Concentration (MIC)
Excerpt: as §1

C parapsilosis 22019 = test: MIC determination (NCCLS broth method); type: cell-based; settings: read-out: Minimum Inhibitory Concentration (MIC)
Excerpt: as §1

C tropicalis 750 = test: MIC determination (NCCLS broth method); type: cell-based; settings: read-out: Minimum Inhibitory Concentration (MIC)
Excerpt: as §1

Fusarium 1050 = test: MIC determination (NCCLS broth method); type: cell-based; settings: read-out: Minimum Inhibitory Concentration (MIC)
Excerpt: as §1

Fusarium 1827C = test: MIC determination (NCCLS broth method); type: cell-based; settings: read-out: Minimum Inhibitory Concentration (MIC)
Excerpt: as §1

Fusarium 2960C = test: MIC determination (NCCLS broth method); type: cell-based; settings: read-out: Minimum Inhibitory Concentration (MIC)
Excerpt: as §1

Mucor (Ceylon) = test: MIC determination (NCCLS broth method); type: cell-based; settings: read-out: Minimum Inhibitory Concentration (MIC)
Excerpt: as §1

Penicillium 1641 = test: MIC determination (NCCLS broth method); type: cell-based; settings: read-out: Minimum Inhibitory Concentration (MIC)
Excerpt: as §1

Penicillium 191 = test: MIC determination (NCCLS broth method); type: cell-based; settings: read-out: Minimum Inhibitory Concentration (MIC)
Excerpt: as §1

Penicillium 2548 = test: MIC determination (NCCLS broth method); type: cell-based; settings: read-out: Minimum Inhibitory Concentration (MIC)
Excerpt: as §1

Penicillium 3162 = test: MIC determination (NCCLS broth method); type: cell-based; settings: read-out: Minimum Inhibitory Concentration (MIC)
Excerpt: as §1

Penicillium H - 1048 = test: MIC determination (NCCLS broth method); type: cell-based; settings: H1048, read-out: Minimum Inhibitory Concentration (MIC)
Excerpt: as §1

Penicillium I - 1049 = test: MIC determination (NCCLS broth method); type: cell-based; settings: I1049, read-out: Minimum Inhibitory Concentration (MIC)
Excerpt: as §1

Rhizopus (Ceylon) = test: MIC determination (NCCLS broth method); type: cell-based; settings: read-out: Minimum Inhibitory Concentration (MIC)
Excerpt: as §1

Rhizopus 1052 = test: MIC determination (NCCLS broth method); type: cell-based; settings: read-out: Minimum Inhibitory Concentration (MIC)
Excerpt: as §1

C neoformans I = test: MIC determination (NCCLS broth method); type: cell-based, Cryptococcus neoformans; settings: Cryptococcus neoformans, read-out: Minimum Inhibitory Concentration (MIC)
Excerpt: as §1

C neoformans M-106 = test: MIC determination (NCCLS broth method); type: cell-based, Cryptococcus neoformans; settings: Cryptococcus neoformans, M106, read-out: Minimum Inhibitory Concentration (MIC)
Excerpt: as §1

Penicilliuim 2306 = test: MIC determination (NCCLS broth method); type: cell-based, Penicillium; settings: Penicillium, read-out: Minimum Inhibitory Concentration (MIC)
Excerpt: as §1

A fumigatus 1008 = test: MFC determination (subculture on Sabouraud Dextrose Agar); type: cell-based, Aspergillus fumigatus; settings: Aspergillus fumigatus, read-out: Minimum Fungicidal Concentration (MFC)
Excerpt: as §1

All Candida isolates = test: Comparative in vitro MIC, isolate panel; type: cell-based
Excerpt: as §1
(§2) A comparative in vitro and in vivo biologically activity data of the compound of our invention, 2-{[1R,2R]-2-(2,4-Difluorophenyl)-2-hydroxy-1-methyl-3-(1H-1,2,4-triazole-1-yl)propyl}-4-[(2′,2′,3′,3′-tetrafluoropropoxyphenyl)-3-(2H,4H)-1,2,4-thiotriazolone (Compound No. 3) with 2-[(1R,2R)-2-(2,4-difluorophenyl)-2-hydroxy-1-methyl-3-(1H-1,2,4-triazol-1-yl)propyl]-4-(2′,2′,3′,3′-tetraflouropropoxyphenyl)-3(2H,4H)-1,2,4-triazolone (TAK 187) and standard antifungal pharmaceuticals is given below: […]

All Filamentous isolates = test: Comparative in vitro MIC, isolate panel; type: cell-based
Excerpt: as §1, §2

All fungal pathogens = test: Comparative in vitro MIC, isolate panel; type: cell-based
Excerpt: as §1, §2

[1] = system: Aspergillus fumigatus isolates; test: Comparative in vitro MIC, isolate panel; type: cell-based
Excerpt: as §1, §2

Fusarium spp. isolates = test: Comparative in vitro MIC, isolate panel; type: cell-based
Excerpt: as §1, §2

[2] = system: Penicillium spp. isolates; test: Comparative in vitro MIC, isolate panel; type: cell-based
Excerpt: as §1, §2

Rhizoupus spp. isolates = test: Comparative in vitro MIC, isolate panel; type: cell-based
Excerpt: as §1, §2

SMILES: CCC(C)n1ncn(-c2ccc(N3CCN(c4ccc(OCC5COC(Cn6cncn6)(c6ccc(Cl)cc6Cl)O5)cc4)CC3)cc2)c1=O (centres unmarked) [Itraconazole]
- MIC (P variotii 22319): 0.016 µg/mL (≈ 0.0227 µM)
- MIC (C albicans A-26): 0.016 µg/mL (≈ 0.0227 µM)
- MIC (C albicans Y01.19): 0.25 µg/mL (≈ 0.354 µM)
- MIC (A flavus E2 - 1043): 0.03 µg/mL (≈ 0.0425 µM)
- MIC (A flavus E3 - 1044): 0.03 µg/mL (≈ 0.0425 µM)
- MIC (A flavus E4 - 1042): 0.06 µg/mL (≈ 0.085 µM)
- MIC (A flavus P2 - 1045): 0.06 µg/mL (≈ 0.085 µM)
- MIC (A flavus P3 - 1041): 0.06 µg/mL (≈ 0.085 µM)
- MIC (A niger E5 - 1047): 0.03 µg/mL (≈ 0.0425 µM)
- MIC (A niger P1 - 1046): 0.125 µg/mL (≈ 0.177 µM)
- MIC (Alternaria 1051): 0.125 µg/mL (≈ 0.177 µM)
- MIC (C glabrata 90030): 0.5 µg/mL (≈ 0.709 µM)
- MIC (C krusei 6258): 0.25 µg/mL (≈ 0.354 µM)
- MIC (C krusei 766.1): 0.5 µg/mL (≈ 0.709 µM)
- MIC (C parapsilosis 22019): 0.03 µg/mL (≈ 0.0425 µM)
- MIC (C tropicalis 750): 0.016 µg/mL (≈ 0.0227 µM)
- MIC (Fusarium 1050): 64 µg/mL (≈ 90.7 µM)
- MIC (Fusarium 1827C): 128 µg/mL (≈ 181 µM)
- MIC (Fusarium 2960C): 16 µg/mL (≈ 22.7 µM)
- MIC (Mucor (Ceylon)): 0.125 µg/mL (≈ 0.177 µM)
- MIC (Penicillium 1641): 0.25 µg/mL (≈ 0.354 µM)
- MIC (Penicillium 191): 0.06 µg/mL (≈ 0.085 µM)
- MIC (Penicillium 2548): 0.25 µg/mL (≈ 0.354 µM)
- MIC (Penicillium 3162): 0.25 µg/mL (≈ 0.354 µM)
- MIC (Penicillium H - 1048): 16 µg/mL (≈ 22.7 µM)
- MIC (Penicillium I - 1049): 16 µg/mL (≈ 22.7 µM)
- MIC (Rhizopus (Ceylon)): 64 µg/mL (≈ 90.7 µM)
- MIC (Rhizopus 1052): 16 µg/mL (≈ 22.7 µM)
- MIC (C neoformans I): 0.03 µg/mL (≈ 0.0425 µM)
- MIC (C neoformans M-106): 0.03 µg/mL (≈ 0.0425 µM)
- MIC (Penicilliuim 2306): 0.125 µg/mL (≈ 0.177 µM)
- MFC (A fumigatus 1008): 0.06 µg/mL (≈ 0.085 µM)
- MIC (All Candida isolates): 0.1 µg/mL (≈ 0.142 µM)
- MIC50 (All Candida isolates; read-out: MIC50): 0.25 µg/mL (≈ 0.354 µM)
- MIC90 (All Candida isolates; read-out: MIC90): 0.5 µg/mL (≈ 0.709 µM)
- MIC (All Filamentous isolates): 0.6 µg/mL (≈ 0.85 µM)
- MIC50 (All Filamentous isolates; read-out: MIC50): 0.25 µg/mL (≈ 0.354 µM)
- MIC90 (All Filamentous isolates; read-out: MIC90): 256 µg/mL (≈ 363 µM)
- MIC (All fungal pathogens): 0.437 µg/mL (≈ 0.619 µM)
- MIC50 (All fungal pathogens; read-out: MIC50): 0.19 µg/mL (≈ 0.269 µM)
- MIC90 (All fungal pathogens; read-out: MIC90): 256 µg/mL (≈ 363 µM)
- MIC [1]: 0.181 µg/mL (≈ 0.257 µM)
- MIC50 ([1]; read-out: MIC50): 0.25 µg/mL (≈ 0.354 µM)
- MIC90 ([1]; read-out: MIC90): 0.5 µg/mL (≈ 0.709 µM)
- MIC (Fusarium spp. isolates): 90.5 µg/mL (≈ 128 µM)
- MIC50 (Fusarium spp. isolates; read-out: MIC50): 64 µg/mL (≈ 90.7 µM)
- MIC90 (Fusarium spp. isolates; read-out: MIC90): 256 µg/mL (≈ 363 µM)
- MIC [2]: 0.922 µg/mL (≈ 1.31 µM)
- MIC50 ([2]; read-out: MIC50): 0.5 µg/mL (≈ 0.709 µM)
- MIC90 ([2]; read-out: MIC90): 256 µg/mL (≈ 363 µM)
- MIC (Rhizoupus spp. isolates): 32 µg/mL (≈ 45.3 µM)
- MIC50 (Rhizoupus spp. isolates; read-out: MIC50): 16 µg/mL (≈ 22.7 µM)
- MIC90 (Rhizoupus spp. isolates; read-out: MIC90): 64 µg/mL (≈ 90.7 µM)
